Experimental data published in PubChem BioAssay AID192 (DTP/NCI, 2004).
Where “and” joins values, the source holds several entries; their conditions need not be identical. Equal entries are not always repeated. Toxic doses and inconclusive results are not listed.

System: BDF1 mice, B16 melanoma ip, median survival T/C
Experiment: NCI In Vivo Anticancer Drug Screen. Data for tumor model B16 Melanoma (intraperitoneal) in B6D2F1 (BDF1) mice
Conditions: endpoint: median survival time, higher = longer survival
Outline: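 Transplantable tumor model; survival or tumor size measured; reported as T/C, treated over vehicle control.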

[1] = dose: 25.0 mg/kg/injection, schedule: Q01DX009 (ip), vehicle: saline with Tween-80
[2] = dose: 50.0 mg/kg/injection, schedule: Q01DX009 (ip), vehicle: saline with Tween-80
[3] = dose: 100.0 mg/kg/injection, schedule: Q01DX009 (ip), vehicle: saline with Tween-80
[4] = dose: 100.0 mg/kg/injection, schedule: Q01DX009 (ip), vehicle: Klucel (hydroxypropylcellulose) (HPC)
[5] = dose: 200.0 mg/kg/injection, schedule: Q01DX009 (ip), vehicle: Klucel (hydroxypropylcellulose) (HPC)
[6] = dose: 50.0 mg/kg/injection, schedule: Q01DX009 (ip), vehicle: saline
[7] = dose: 100.0 mg/kg/injection, schedule: Q01DX009 (ip), vehicle: saline
[8] = dose: 400.0 mg/kg/injection, schedule: Q01DX009 (ip), vehicle: Klucel (hydroxypropylcellulose) (HPC)

In the case of `CCOC(C[Se][Se]CC(OCC)OCC)OCC`, the T/C (dose: 1.56 mg/kg/injection, schedule: Q01DX009 (ip), vehicle: saline) is reported as 99 % of control, the T/C (dose: 3.13 mg/kg/injection, schedule: Q01DX009 (ip), vehicle: saline) is reported as 104 % of control and the T/C (dose: 6.25 mg/kg/injection, schedule: Q01DX009 (ip), vehicle: saline) is reported as 95 % of control.

With `CN(C)CCCN=Cc1ccccc1O.CN(C)CCCN=Cc1ccccc1O.[Ni+2]` the T/C (dose: 6.25 mg/kg/injection, schedule: Q04DX003 (ip), vehicle: saline with Tween-80) was 92 % of control and the T/C (dose: 25.0 mg/kg/injection, schedule: Q04DX003 (ip), vehicle: saline with Tween-80) was 86 % of control.

`COC(=O)C1C2CC(C3OC23)C1C(=O)OC` (stereo unspecified) was tested, and the T/C (dose: 100.0 mg/kg/injection, schedule: Q04DX003 (ip), vehicle: Klucel (hydroxypropylcellulose) (HPC)) was 94 % of control, the T/C (dose: 200.0 mg/kg/injection, schedule: Q04DX003 (ip), vehicle: Klucel (hydroxypropylcellulose) (HPC)) was 100 % of control and the T/C (dose: 400.0 mg/kg/injection, schedule: Q04DX003 (ip), vehicle: Klucel (hydroxypropylcellulose) (HPC)) was 96 % of control.

With `CCCCc1c(C)[nH]c(=S)[nH]c1=O` the T/C [1] was 110 % of control, the T/C [2] was 104 % of control and the T/C [3] was 97 % of control.

`CCOC(=O)C(Cc1c[nH]c2cc(N)ccc12)(NC(C)=O)C(=O)OCC` was tested, and the T/C [4] was 89 % of control and the T/C [5] was 87 % of control.

For `Cc1ccccc1CN1CCN(CCOC(c2ccccc2)c2ccccc2Cl)CC1` (stereo unspecified), the T/C (dose: 3.12 mg/kg/injection, schedule: Q01DX009 (ip), vehicle: Klucel (hydroxypropylcellulose) (HPC)) was 93 % of control and 94 % of control, the T/C (dose: 6.25 mg/kg/injection, schedule: Q01DX009 (ip), vehicle: Klucel (hydroxypropylcellulose) (HPC)) was 93 % of control and the T/C (dose: 12.5 mg/kg/injection, schedule: Q01DX009 (ip), vehicle: Klucel (hydroxypropylcellulose) (HPC)) was 91 % of control and 100 % of control. The T/C (dose: 25.0 mg/kg/injection, schedule: Q01DX009 (ip), vehicle: Klucel (hydroxypropylcellulose) (HPC)) was 86 % of control and 89 % of control and the T/C (dose: 50.0 mg/kg/injection, schedule: Q01DX009 (ip), vehicle: Klucel (hydroxypropylcellulose) (HPC)) was 86 % of control.

For `OC(C1CO1)(C(F)(F)F)C(F)(F)F` (stereo unspecified), the T/C [6] was 92 % of control, the T/C [7] was 90 % of control and the T/C (dose: 200.0 mg/kg/injection, schedule: Q01DX009 (ip), vehicle: saline) was 92 % of control.

In the case of `COC(=O)c1ccc(Cl)nc1`, the T/C [4] is reported as 94 % of control and the T/C [8] is reported as 94 % of control.

`CC(=O)O[C@H]1C(=O)[C@@]2(C)[C@H]([C@H](OC(=O)c3ccccc3)[C@]3(O)C[C@H](OC(=O)[C@H](O)[C@@H](NC(=O)c4ccccc4)c4ccccc4)C(C)=C1C3(C)C)[C@]1(OC(C)=O)CO[C@@H]1C[C@@H]2O` was tested, and the T/C (dose: 0.66 mg/kg/injection, schedule: Q01DX005 (iv), vehicle: other) was 100 % of control, the T/C (dose: 0.66 mg/kg/injection, schedule: Q08HX018 (ip), vehicle: Klucel (hydroxypropylcellulose) (HPC)) was 160 % of control and the T/C (dose: 0.66 mg/kg/injection, schedule: Q08HX018 (ip), vehicle: other) was 110 % of control. The T/C (dose: 0.98 mg/kg/injection, schedule: Q08HX018 (ip), vehicle: Klucel (hydroxypropylcellulose) (HPC)) was 183 % of control, the T/C (dose: 1.25 mg/kg/injection, schedule: Q01DX009 (ip), vehicle: Klucel (hydroxypropylcellulose) (HPC)) was 153 % of control and 181 % of control and the T/C (dose: 1.25 mg/kg/injection, schedule: Q01DX009 (oral), vehicle: Klucel (hydroxypropylcellulose) (HPC)) was 91 % of control. For the same compound, the T/C (dose: 1.32 mg/kg/injection, schedule: Q01DX009 (ip), vehicle: Klucel (hydroxypropylcellulose) (HPC)) was 164 % of control, the T/C (dose: 1.48 mg/kg/injection, schedule: Q01DX005 (iv), vehicle: other) was 105 % of control and the T/C (dose: 1.48 mg/kg/injection, schedule: Q08HX018 (ip), vehicle: Klucel (hydroxypropylcellulose) (HPC)) was 207 % of control. For the same compound, the T/C (dose: 1.48 mg/kg/injection, schedule: Q08HX018 (ip), vehicle: other) was 174 % of control, the T/C (dose: 1.98 mg/kg/injection, schedule: Q01DX009 (ip), vehicle: Klucel (hydroxypropylcellulose) (HPC)) was 183 % of control and 200 % of control and the T/C (dose: 2.22 mg/kg/injection, schedule: Q08HX018 (ip), vehicle: Klucel (hydroxypropylcellulose) (HPC)) was 187 % of control. For the same compound, the T/C (dose: 2.22 mg/kg/injection, schedule: Q08HX018 (ip), vehicle: other) was 193 % of control, the T/C (dose: 2.5 mg/kg/injection, schedule: Q01DX009 (ip), vehicle: other) was 106 % of control and the T/C (dose: 2.5 mg/kg/injection, schedule: Q01DX009 (oral), vehicle: Klucel (hydroxypropylcellulose) (HPC)) was 116 % of control. For the same compound, the T/C (dose: 2.96 mg/kg/injection, schedule: Q01DX009 (ip), vehicle: Klucel (hydroxypropylcellulose) (HPC)) was 206 % of control and 217 % of control, the T/C (dose: 3.33 mg/kg/injection, schedule: Q01DX005 (iv), vehicle: other) was 95 % of control and the T/C (dose: 3.33 mg/kg/injection, schedule: Q08HX018 (ip), vehicle: Klucel (hydroxypropylcellulose) (HPC)) was 198 % of control. For the same compound, the T/C (dose: 4.44 mg/kg/injection, schedule: Q01DX009 (ip), vehicle: Klucel (hydroxypropylcellulose) (HPC)) was 194 % of control and 231 % of control, the T/C (dose: 5.0 mg/kg/injection, schedule: Q08HX018 (ip), vehicle: Klucel (hydroxypropylcellulose) (HPC)) was 240 % of control and the T/C (dose: 5.0 mg/kg/injection, schedule: Q08HX018 (ip), vehicle: other) was 150 % of control and 208 % of control. For the same compound, the T/C (dose: 7.5 mg/kg/injection, schedule: Q01DX005 (iv), vehicle: other) was 100 % of control, the T/C (dose: 7.5 mg/kg/injection, schedule: Q08HX018 (ip), vehicle: Klucel (hydroxypropylcellulose) (HPC)) was 122 % of control and the T/C (dose: 11.2 mg/kg/injection, schedule: Q01DX005 (iv), vehicle: other) was 108 % of control. For the same compound, the T/C (dose: 20.0 mg/kg/injection, schedule: Q01DX009 (oral), vehicle: Klucel (hydroxypropylcellulose) (HPC)) was 108 % of control and the T/C (dose: 40.0 mg/kg/injection, schedule: Q01DX009 (oral), vehicle: Klucel (hydroxypropylcellulose) (HPC)) was 106 % of control.

In the case of `CCCCCCC(=O)/C=C/c1cccc(OCOCC)c1`, the T/C (dose: 12.5 mg/kg/injection, schedule: Q01DX009 (ip), vehicle: saline with Tween-80) is reported as 99 % of control, the T/C [1] is reported as 94 % of control and the T/C [2] is reported as 102 % of control. For the same compound, the T/C [3] was 98 % of control.

With `CCN1C=C/C(=C/c2cc3scc(-c4ccccc4)[n+]3c3ccccc23)c2ccccc21` the T/C (dose: 0.08 mg/kg/injection, schedule: Q01DX009 (ip), vehicle: saline) was 94 % of control, the T/C (dose: 0.15 mg/kg/injection, schedule: Q01DX009 (ip), vehicle: saline) was 94 % of control and the T/C (dose: 0.3 mg/kg/injection, schedule: Q01DX009 (ip), vehicle: saline) was 90 % of control. For the same compound, the T/C (dose: 75.0 micrograms/kg/injection, schedule: Q01DX009 (ip), vehicle: Klucel (hydroxypropylcellulose) (HPC)) was 103 % of control, the T/C (dose: 150.0 micrograms/kg/injection, schedule: Q01DX009 (ip), vehicle: Klucel (hydroxypropylcellulose) (HPC)) was 107 % of control and the T/C (dose: 300.0 micrograms/kg/injection, schedule: Q01DX009 (ip), vehicle: Klucel (hydroxypropylcellulose) (HPC)) was 98 % of control. For the same compound, the T/C (dose: 600.0 micrograms/kg/injection, schedule: Q01DX009 (ip), vehicle: Klucel (hydroxypropylcellulose) (HPC)) was 95 % of control.

In the case of `Cc1cccc(C)c1NC(=O)C(Cl)c1ccccc1` (stereo unspecified), the T/C [4] is reported as 103 % of control, the T/C [5] is reported as 93 % of control and the T/C [8] is reported as 100 % of control.

For `NC(=O)CCCN1CCCC1=O`, the T/C (dose: 100.0 mg/kg/injection, schedule: Q04DX003 (ip), vehicle: saline) was 106 % of control, the T/C (dose: 200.0 mg/kg/injection, schedule: Q04DX003 (ip), vehicle: saline) was 109 % of control and the T/C (dose: 400.0 mg/kg/injection, schedule: Q04DX003 (ip), vehicle: saline) was 106 % of control.

In the case of `CCCCCCCCCCCC(=O)N(CCCC)CCCC`, the T/C (dose: 37.5 mg/kg/injection, schedule: Q01DX009 (ip), vehicle: Klucel (hydroxypropylcellulose) (HPC)) is reported as 101 % of control, the T/C (dose: 75.0 mg/kg/injection, schedule: Q01DX009 (ip), vehicle: Klucel (hydroxypropylcellulose) (HPC)) is reported as 101 % of control and the T/C (dose: 150.0 mg/kg/injection, schedule: Q01DX009 (ip), vehicle: Klucel (hydroxypropylcellulose) (HPC)) is reported as 97 % of control.

With `CC(=O)OCC1OC(n2ccc(N)nc2=O)C(OC(C)=O)C1OC(C)=O` (stereo unspecified) the T/C (dose: 12.5 mg/kg/injection, schedule: Q01DX009 (ip), vehicle: saline) was 105 % of control, the T/C (dose: 25.0 mg/kg/injection, schedule: Q01DX009 (ip), vehicle: saline) was 105 % of control and the T/C [6] was 105 % of control. For the same compound, the T/C [7] was 109 % of control.

For `COc1ccc(CC(CO)C(CO)Cc2ccc(OC)c(OC)c2)cc1OC` (stereo unspecified), the T/C [4] was 93 % of control, the T/C [5] was 100 % of control and the T/C [8] was 103 % of control.
